Measurements taken from ChEMBL document CHEMBL1152287, “Structure-activity relationships of acetylcholinesterase noncovalent inhibitors based on a polyamine backbone. 4. Further investigation on the inner spacer” (J Med Chem, 2008).

Columns and labels:
Acetylcholinesterase = Acetylcholinesterase (Homo sapiens, UniProt P22303); assay: Inhibition of human recombinant AChE by Ellman's assay
Cholinesterase = Cholinesterase (Homo sapiens, UniProt P06276); assay: Inhibition of human serum BChE by Ellman's assay
Chain of Cholinesterase (P06276 whole entry): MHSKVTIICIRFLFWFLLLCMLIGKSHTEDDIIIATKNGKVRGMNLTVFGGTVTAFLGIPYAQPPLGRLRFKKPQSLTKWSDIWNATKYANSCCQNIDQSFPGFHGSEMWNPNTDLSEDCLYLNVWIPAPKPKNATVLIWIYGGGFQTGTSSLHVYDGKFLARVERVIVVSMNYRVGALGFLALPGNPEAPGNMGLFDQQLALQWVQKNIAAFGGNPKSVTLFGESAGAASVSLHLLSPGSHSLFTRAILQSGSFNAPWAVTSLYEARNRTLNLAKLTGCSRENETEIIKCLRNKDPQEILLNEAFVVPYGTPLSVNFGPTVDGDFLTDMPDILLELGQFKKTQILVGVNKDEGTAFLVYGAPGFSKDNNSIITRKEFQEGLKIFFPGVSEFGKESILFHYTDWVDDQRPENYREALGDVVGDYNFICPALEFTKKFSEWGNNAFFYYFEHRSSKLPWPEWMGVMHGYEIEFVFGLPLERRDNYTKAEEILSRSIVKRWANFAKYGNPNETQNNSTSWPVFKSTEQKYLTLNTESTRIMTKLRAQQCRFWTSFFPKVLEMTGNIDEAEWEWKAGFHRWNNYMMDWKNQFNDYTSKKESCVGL

[1] = target: T1, Amyloid-beta precursor protein (Homo sapiens, UniProt P05067); assay: Inhibition of self-induced amyloid beta (1-40) aggregation at 10 uM by thioflavin T formation assay
T1 sequence (P05067 whole entry): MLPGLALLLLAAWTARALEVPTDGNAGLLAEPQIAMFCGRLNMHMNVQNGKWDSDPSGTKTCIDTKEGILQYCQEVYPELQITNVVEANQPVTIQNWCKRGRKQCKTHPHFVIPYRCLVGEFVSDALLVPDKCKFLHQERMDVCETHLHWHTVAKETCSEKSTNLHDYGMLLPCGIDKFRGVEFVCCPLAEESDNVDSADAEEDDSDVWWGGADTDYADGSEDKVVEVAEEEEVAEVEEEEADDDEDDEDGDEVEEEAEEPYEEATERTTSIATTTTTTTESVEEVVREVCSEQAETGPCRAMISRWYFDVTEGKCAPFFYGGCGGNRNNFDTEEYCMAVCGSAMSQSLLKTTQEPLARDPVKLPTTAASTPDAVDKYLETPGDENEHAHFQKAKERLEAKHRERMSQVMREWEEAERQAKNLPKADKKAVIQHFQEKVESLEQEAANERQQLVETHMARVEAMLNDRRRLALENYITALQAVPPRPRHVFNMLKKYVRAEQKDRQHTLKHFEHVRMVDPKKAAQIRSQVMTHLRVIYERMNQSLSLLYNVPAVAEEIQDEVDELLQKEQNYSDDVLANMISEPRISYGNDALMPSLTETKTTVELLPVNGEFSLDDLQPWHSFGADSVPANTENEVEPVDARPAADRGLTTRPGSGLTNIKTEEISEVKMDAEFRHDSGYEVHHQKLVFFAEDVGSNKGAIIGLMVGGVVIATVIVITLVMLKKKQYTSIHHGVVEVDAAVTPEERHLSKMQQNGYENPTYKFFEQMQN

[2] = target: T1, Amyloid-beta precursor protein; assay: Inhibition of self-induced amyloid beta (1-40) aggregation by thioflavin T formation assay

Chain of Acetylcholinesterase (P22303 whole entry): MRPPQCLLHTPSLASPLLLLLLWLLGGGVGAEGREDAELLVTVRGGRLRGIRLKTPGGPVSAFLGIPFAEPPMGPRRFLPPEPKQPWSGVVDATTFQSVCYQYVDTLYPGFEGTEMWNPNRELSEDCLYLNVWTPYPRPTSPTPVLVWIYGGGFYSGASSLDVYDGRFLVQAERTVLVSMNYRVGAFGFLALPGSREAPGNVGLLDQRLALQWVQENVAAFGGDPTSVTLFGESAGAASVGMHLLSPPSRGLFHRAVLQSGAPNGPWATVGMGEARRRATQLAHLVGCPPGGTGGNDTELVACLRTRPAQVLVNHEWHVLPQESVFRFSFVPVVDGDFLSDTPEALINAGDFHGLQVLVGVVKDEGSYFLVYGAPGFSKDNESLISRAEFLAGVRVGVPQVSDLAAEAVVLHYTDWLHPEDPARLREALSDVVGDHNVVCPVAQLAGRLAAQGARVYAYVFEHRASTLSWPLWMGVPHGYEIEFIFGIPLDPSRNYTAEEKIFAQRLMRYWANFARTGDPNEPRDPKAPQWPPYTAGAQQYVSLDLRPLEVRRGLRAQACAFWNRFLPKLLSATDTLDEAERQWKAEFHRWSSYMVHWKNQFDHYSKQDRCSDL

SMILES | IC50 (Acetylcholinesterase) | IC50 (Cholinesterase) | inhibition [1] | IC50 [2]
CCN(CCCCCCN1CC(=O)N(CCCCCCN(CC)Cc2ccccc2OC)CC1=O)Cc1ccccc1OC | 0.0159 µM | 2.09 µM | 4.8% | –
CCN(CCCCCC(=O)N1Cc2ccc3c4c(ccc(c24)C1)CN(C(=O)CCCCCN(CC)Cc1ccccc1OC)C3)Cc1ccccc1OC | 0.00483 µM | 1.04 µM | 12.7% | –
CCN(CCCCCCn1c(=O)c2cc3c(=O)n(CCCCCCN(CC)Cc4ccccc4OC)c(=O)c3cc2c1=O)Cc1ccccc1OC | 0.0077 µM | 3 µM | < 5% | –
CCN(CCCCCC(=O)N[C@H]1CCCC[C@H]1NC(=O)CCCCCN(CC)Cc1ccccc1OC)Cc1ccccc1OC | 4.16 µM | 30.8 µM | – | –
CCN(CCCCCCN1C(=O)c2ccc(-c3ccc4c(c3)C(=O)N(CCCCCCN(CC)Cc3ccccc3OC)C4=O)cc2C1=O)Cc1ccccc1OC | 0.014 µM | 0.293 µM | 16.5% | –
CCN(CCCCCCn1c(=O)c(=O)n(CCCCCCN(CC)Cc2ccccc2OC)c2ccccc21)Cc1ccccc1OC | 0.00141 µM | 0.0958 µM | 8.8% | –
CCN(CCCCCCN1CCN(CCCCCCN(CC)Cc2ccccc2OC)C1=O)Cc1ccccc1OC | 0.0724 µM | 0.876 µM | < 5% | –
CCN(CCCCCCN1CCN(CCCCCCN(CC)Cc2ccccc2OC)C(=O)C1=O)Cc1ccccc1OC | 0.0689 µM | 10.3 µM | – | –
CCN(CCCCCCN1C(=O)c2cccc3cccc(c23)C1=O)Cc1ccccc1OC | 0.0535 µM | 0.416 µM | < 5% | –
COc1ccccc1CN(C)CCCCCC(=O)N(C)CCCCCCCCN(C)C(=O)CCCCCN(C)Cc1ccccc1OC | – | – | 20.3% | –
CCN(CCCCCCN1C(=O)c2ccc3c4c(ccc(c24)C1=O)C(=O)N(CCCCCCN(CC)Cc1ccccc1OC)C3=O)Cc1ccccc1OC | 0.00037 µM | 1.91 µM | 54.5% | 9.69 µM
CCN(CCCCCC(=O)N[C@H]1CC[C@H](NC(=O)CCCCCN(CC)Cc2ccccc2OC)CC1)Cc1ccccc1OC | 8.55 µM | 25.3 µM | – | –
CCN(CCCCCC(=O)N[C@H]1CCCC[C@@H]1NC(=O)CCCCCN(CC)Cc1ccccc1OC)Cc1ccccc1OC (racemic) | 5.47 µM | 36.8 µM | – | –
CCN(CCCCCC(=O)N1CCN(C(=O)CCCCCN(CC)Cc2ccccc2OC)CC1)Cc1ccccc1OC | 0.0257 µM | 10.7 µM | < 5% | –
CCN(CCCCCC(=O)N1CCC(C2CCN(C(=O)CCCCCN(CC)Cc3ccccc3OC)CC2)CC1)Cc1ccccc1OC | – | – | 13.7% | –
